From patent US9096536B2, “Asymmetrically substituted anthrapyridazone derivatives as cytostatics” (BS-154 S.P. ZO.O., priority 2011, dated 2015)
Like-named read-outs stand apart in the source and are kept apart here.

What was measured:
[1] = system: human promyelocytic leukemia cell line HL-60; assay: Cytostatic activity in vitro, HL-60 sensitive line; type: cell-based; settings: read-out: HL60 IC50
Excerpt: (§1) Tables 3 and 4 show cytostatic activity in vitro of 2,6-disubstituted and 2- or 6-monosubstituted (Tab.3), and of 2,5-disubstituted-(Tab.-4) tetracyclic anthrapyridazone derivatives using leukemia cell line HL-60 and the resistant cell sublines with resistance induced by vincristine (MDR-1) or doxorubicin (MRP). Activity of compounds is differentiated depending on their structure, but in all cases resistance indexes are more advantageous in comparison with reference compounds: doxorubicin and mitoxantrone.

[2] = system: HL60/VINC; assay: Cytostatic activity in vitro, vincristine-induced resistant subline (MDR-1); type: cell-based, human; settings: for RI resistance index HL60/VINC / RI resistance index HL60VINC: IC50(resistant cells)/IC50(sensitive cells); for RI resistance index HL60/VINC: HL60/VINC vs HL60, 72 h; for RI resistance index HL60VINC: 96 h
Excerpt: as §1

[3] = system: HL60/DX; assay: Cytostatic activity in vitro, doxorubicin-induced resistant subline (MRP); type: cell-based, human; settings: for RI resistance index HL60/DX: IC50(resistant cells)/IC50(sensitive cells)
Excerpt: as §1

[4] = system: human prostate cancer cell line DU145; assay: Cytostatic activity in vitro, prostate cancer DU145; type: cell-based; settings: 72 h continuous exposure
Excerpt: (§2) Table 5 presents activity in vitro of anthrapiridazone derivatives towards three cell lines of prostate cancer, naturally multidrug resistant, in comparison with references doxorubicin, mitoxantrone and taxol.

[5] = system: human prostate cancer cell line LNCaP; assay: Cytostatic activity in vitro, prostate cancer LNCaP; type: cell-based; settings: 72 h continuous exposure
Excerpt: as §2

[6] = system: human prostate cancer cell line PC3; assay: Cytostatic activity in vitro, prostate cancer PC3; type: cell-based; settings: 72 h continuous exposure
Excerpt: as §2

[7] = system: CT-DNA; assay: Interaction with isolated CT-DNA, fluorescence competition with ethidium bromide; type: binding; settings: for IC50: 50% decrease in fluorescence intensity of DNA-bromide ethydine complex; for Kapp relative constant of DNA-compound bonding: Kapp = (1.26/C50) × KEtBr, KEtBr = 10^7M
Excerpt: It could be supposed that this property explains cytostatic activity of compounds. In Table 9 there are presented quantitative data on the affinity to DNA of tested compounds using the fluorescence method and competitive affinity to DNA of bromine ethydine and tested compounds.

[8] = 50% inhibition of cell growth after 72 h continuous exposure
[9] = 96 h continuous exposure, read-out: HL60VINC IC50

SMILES	IC50 [1, 8] [nM]	IC50 ([2]; 72 h continuous exposure) [nM]	IC50 ([3]; 72 h continuous exposure) [nM]	IC50 [4] [nM]	IC50 [5] [nM]	IC50 [6] [nM]	IC50 [7] [nM]	IC50 ([1]; 96 h continuous exposure) [nM]	IC50 [2, 9] [nM]	IC50 ([3]; 96 h continuous exposure) [nM]	IC50 ([4]; Homo sapiens, DU-145) [nM]	IC50 ([5]; Homo sapiens, LNCaP) [nM]	IC50 ([6]; Homo sapiens) [nM]	RI resistance index HL60/VINC [2]	RI resistance index HL60/DX ([3]; HL60/DX vs HL60, 72 h)	Kapp relative constant of DNA-compound bonding [7] [M⁻¹]	RI resistance index HL60VINC [2]	RI resistance index HL60/DX ([3]; 96 h)
CN(C)CCn1nc2c3ccccc3c3nn(CCN(C)C)c4ccc(c1=O)c2c34 [Compound C-163, Bis-2,6-[2-(dimethylamino)ethyl]-2,6-dihydro-5H-benzo[h]indazolo[5,4,3-def]cynnoline-5-one]	31 ± 6	48 ± 7	330 ± 17	21.8 ± 4.7	28.2 ± 7.4	122 ± 27.6	230 ± 10	–	–	–	–	–	–	1.5	10.6	5.57e+07	–	–
CC(CNc1ccc2c(=O)n(CC(C)N(C)C)nc3c2c1C(=O)c1ccccc1-3)N(C)C (stereo not shown) [Compound C-123, 2-[2-(Dimethylamino)propyl]-6-{[2-(dimethylamino)propyl]amino}-2,7-dihydro-3H-dibenzo[de,h]cynnoline-3,7-dione]	8.7 ± 0.5	58 ± 6	827 ± 145	25.6 ± 2.6	52.9 ± 12.1	127 ± 38.6	310 ± 40	–	–	–	–	–	–	6.7	95.1	4.04e+07	–	–
CN(C)CCNc1ccc2c(=O)n(CCO)nc3c2c1C(=O)c1ccccc1-3 [Compound C-167, 2-(2-Hydroxyethyl)-6-(2-dimethylamino)ethylamino-2H-dibenzo[de,h]cynnoline-3,7-dione]	111 ± 27	393 ± 45	1240 ± 206	294 ± 53	202 ± 35	776 ± 45	2040 ± 70	–	–	–	–	–	–	3.5	11.1	6.2e+06	–	–
CC(=O)[C@]1(O)Cc2c(O)c3c(c(O)c2[C@@H](O[C@H]2C[C@H](N)[C@H](O)[C@H](C)O2)C1)C(=O)c1ccccc1C3=O [Idarubicin, reference compound]	–	–	–	–	–	–	500 ± 60	–	–	–	–	–	–	–	–	2.5e+07	–	–
O=C1c2ccccc2C(=O)c2c(NCCNCCO)ccc(NCCNCCO)c21 [Ametantrone, reference compound]	–	–	–	–	–	–	49 ± 6	–	–	–	–	–	–	–	–	2.57e+08	–	–
CCN(CC)CCNc1ccc2c(=O)n(CCN(C)C)nc3c2c1C(=O)c1ccccc1-3 [Compound C-155, 2-[2-(Dimethylamino)ethyl]-6-{[(2-diethylamino)ethyl]amino}-2,7-dihydro-3H-dibenzo[de,h]cynnoline-3,7-dione]	19 ± 4	116 ± 28	446 ± 100	71.4 ± 21.6	26.2 ± 7.2	144 ± 32.7	310 ± 10	–	–	–	–	–	–	6.1	23.5	4.02e+07	–	–
CN(C)CCn1nc2c3c(cc(NCCNCc4ccccc4)cc3c1=O)C(=O)c1ccccc1-2 [Compound C-171, 2-[2-(Dimethylamino)ethyl]-5-[(2-benzylamino)ethylamino]-2,7-dihydro-3H-dibenzo[de,h]cynnolino-3,7-dion]	–	–	–	–	–	–	–	398 ± 25	375 ± 18	564 ± 34	–	–	–	–	–	–	0.9	1.4
CN(C)CCn1nc2c3c(cc(NCCN)cc3c1=O)C(=O)c1ccccc1-2 [Compound C-170, 2-[2-(Dimethylamino)ethyl]-5-(2-aminoetyloamino)-2,7-dihydro-3H-dibenzo[de,h]cynnoline-3,7-dione]	–	–	–	–	–	–	–	8.2 ± 1	210 ± 52	753 ± 29	–	–	–	–	–	–	25.6	91.9
CC(=O)O[C@H]1C(=O)[C@@]2(C)[C@H]([C@H](OC(=O)c3ccccc3)[C@]3(O)C[C@H](OC(=O)[C@H](O)[C@@H](NC(=O)c4ccccc4)c4ccccc4)C(C)=C1C3(C)C)[C@]1(OC(C)=O)CO[C@@H]1C[C@@H]2O [Taxol, reference compound]	–	–	–	–	–	–	–	–	–	–	3.9 ± 0.6	1.2 ± 0.3	4 ± 0.4	–	–	–	–	–

Further lines, with some results ahead:

IC50 [1, 8] [nM]	IC50 ([2]; 72 h continuous exposure) [nM]	IC50 ([3]; 72 h continuous exposure) [nM]	IC50 [4] [nM]	IC50 [5] [nM]	IC50 [6] [nM]	IC50 [7] [nM]	IC50 ([1]; 96 h continuous exposure) [nM]	IC50 [2, 9] [nM]	IC50 ([3]; 96 h continuous exposure) [nM]	IC50 ([4]; Homo sapiens, DU-145) [nM]	IC50 ([5]; Homo sapiens, LNCaP) [nM]	IC50 ([6]; Homo sapiens) [nM]	SMILES	RI resistance index HL60/VINC [2]	RI resistance index HL60/DX ([3]; HL60/DX vs HL60, 72 h)	Kapp relative constant of DNA-compound bonding [7] [M⁻¹]	RI resistance index HL60VINC [2]	RI resistance index HL60/DX ([3]; 96 h)
758 ± 115	1160 ± 93	2770 ± 494	2090 ± 583	1550 ± 363	3010 ± 264	3150 ± 150	–	–	–	–	–	–	O=C1c2ccccc2-c2n[nH]c(=O)c3ccc(NCCNCc4ccccc4)c1c23 [PDZ-10, 6-(2-Benzylaminoetyloamino)-2,7-dihydro-3H-dibenzo[de,h]cynnoline-3,7-dione]	1.5	3.7	4e+06	–	–
13 ± 1	421 ± 24	3240 ± 558	36.7 ± 7.4	50.7 ± 10.2	106 ± 5.7	1840 ± 160	–	–	–	–	–	–	CC(=O)NCCCNc1ccc2c(=O)n(CCN(C)C)nc3c2c1C(=O)c1ccccc1-3 [PDZ-13, 2-[2-(Dimethylamino)ethyl]-6-[(3-acetylaminopropyl)amino]-2,7-dihydro-3H-dibenzo [de,h]cynnoline-3,7-dione]	32.4	249.2	6.8e+06	–	–
21 ± 1	43 ± 2	620 ± 62	28.6 ± 2.8	65.4 ± 7.4	80.5 ± 12	1850 ± 160	–	–	–	–	–	–	CNc1ccc2c(=O)n(CCN(C)C)nc3c2c1C(=O)c1ccccc1-3 [PDZ-7, 2-[2-(Dimethylamino)ethyl]-6-(N-methylamino)-2,7-dihydro-3H-dibenzo[de,h]cynnoline-3,7-dione]	2.0	29.5	6.8e+06	–	–
2080 ± 169	2550 ± 286	4720 ± 389	3280 ± 355	2790 ± 276	5110 ± 206	16800 ± 410	–	–	–	–	–	–	Nc1ccc2c(=O)n(CCN3CCOCC3)nc3c2c1C(=O)c1ccccc1-3 [PDZ-4, 2-(2-Morpholinethyl)-6-amino-2,7-dihydro-3H-dibenzo[de,h]cynnoline-3,7-dione]	1.2	2.3	700000	–	–
115 ± 3	597 ± 16	3500 ± 752	418 ± 58	465 ± 121	974 ± 159	1960 ± 120	–	–	–	–	–	–	CCN(CC)CCNc1ccc2c(=O)[nH]nc3c2c1C(=O)c1ccccc1-3 [PDZ-18, 6-(2-Diethylaminoethyloamino)-2,7-dihydro-3H-dibenzo[de,h]cynnoline-3,7-dione]	5.2	30.4	6.4e+06	–	–
8.6 ± 0.9	82.2 ± 6.1	2600 ± 436	47.3 ± 11.5	31.4 ± 4.6	245 ± 36	220 ± 60	–	–	–	–	–	–	CN(C)CCn1nc2c3c(c(NCCCN)ccc3c1=O)C(=O)c1ccccc1-2 [PDZ-20, 2-[2-(Dimethylamino)ethyl]-6-[(3-aminopropyl)amino]-2,7-dihydro-3H-dibenzo [de,h]cynnoline-3,7-dione]	9.6	302.2	5.79e+07	–	–
213 ± 64	489 ± 68	3060 ± 992	462 ± 52	323 ± 34	963 ± 171	3080 ± 190	–	–	–	–	–	–	CN(C)CCn1nc2c3c(cccc3c1=O)C(=O)c1ccccc1-2 [PDZ-15, 2-[2-(Dimethylamino)ethyl]-2,7-dihydro-3H-dibenzo[de,h]cynnoline-3,7-dione]	2.3	14.4	4.1e+06	–	–
